Assay results from patent EP0104826A2, “Immunomodulator and method of use for immunomodulation” (FUJISAWA PHARMACEUTICAL CO., LTD., priority 1982, dated 1984).

Experiments:
Assay type in all cases: in vivo
[1] = tested on: antibody forming capacities; test: Antibody forming capacity (PFC-SRBC) in mice immunosuppressed with cyclophosphamide; conditions: BDF1 mice; Cyclophosphamide (22.5 mg/kg) i.p. + Saline
Description: Female BDF1 (8 weeks in age) mice were injected intraperitoneally with cyclophosphamide (22.5 mg/kg) 4 days before immunization with 5 x 10^8 SRBC. Samples were administered to mice i.p. from four days before immunization, every day for five days.
Mouse splenic lymphocytes producing antibody against SRBC were quantitated by using Cunningham modification method described previously.

[2] = tested on: thymus; test: Dexamethasone-induced thymus atrophy in mice; conditions: ddY mice; dexamethasone 1 ug/ml in drinking water, no sample; n=5
Description: Five week-old ddY mice(male) were used. Samples were given subcutaneously twice per day from day 0 to day 2 of the experiment. Five hours after first medication on day 0, mice were supplied with drinking water containing 1 ug/ml of dexamethasone.
At day 2, the weight of thymus of the treated mice was compared with that of the nontreated controls.

[3] = tested on: antibody forming capacities; test: Antibody forming capacity (PFC-SRBC) in mice immunosuppressed with mitomycin C; conditions: BDF1 mice; Mitomycin C (1.0 mg/kg) i.p. + Saline
Description: Female BDF1 (8 weeks in age) mice were injected intraperitoneally with mitomycin C (1 mg/kg) from four days before immuization with 5 x 10^8 SRBC, every day for three days. Samples also were administered to mice intraperitoneally from four days before immunization, every day for five days.
At day 9, mice were sacrificed and the number of direct plaque forming cells per spleen was measured by using Cunningham modification method.

O=P1(N(CCCl)CCCl)NCCCO1 (stereo not drawn) [Cyclophosphamide, reference compound]
PFC-SRBC/spleen (average number of 5 mice/group) [1]: 8.46 x 10^4 PFC-SRBC/spleen

C[C@@H]1C[C@H]2[C@@H]3CCC4=CC(=O)C=C[C@]4(C)[C@@]3(F)[C@@H](O)C[C@]2(C)[C@@]1(O)C(=O)CO [Dexamethasone, reference compound]
Thymus weight [2]: 57.2 mg/mouse

CO[C@@]12[C@H](COC(N)=O)C3=C(C(=O)C(C)=C(N)C3=O)N1C[C@@H]1N[C@@H]12 [Mitomycin C, reference compound]
PFC-SRBC/spleen (average number of 5 mice/group) [3]: 12.65 x 10^4 PFC-SRBC/spleen
